Reference: patent publication US8367645B2, “Compositions and methods for treating hyperproliferative diseases” (priority 2008, dated 2013)
Marks after values point to notes of the source that are not given here.

What was measured:
[1] = system: B16 (mice melanoma cells); conditions: metformin 5 mM alone or in combination
Experimental: Each of the cell samples were then tested in a flow cytometer. The testing methodology and equipment used are set forth as follows. Cells were harvested and washed twice with phosphate buffered saline, (PBS) and fixed in 70% cold ethanol at 4° C. overnight. Before analysis, cells were washed twice with PBS, containing 1% bovine serum albumin (BSA), then resuspended with 400 μl PBS and treated with 100 μg/ml RNase A (Roche Diagnostics) and 50 μg/ml propidium iodide (PI) (Sigma). After incubation for 30 min at 37° C., the cells were subjected to DNA content analysis. propidium iodide, (PI) fluorescence was analyzed with a FACS calibur flowcytometer, (Becton Dickinson). Data from at least 10,000 cells were analyzed with software.
In Example 5, Metformin 5 mM; Metformin 5 mM+aspirin 2 mM; and Metformin 5 mM+aspirin 2 mM+serotonin creatinine sulfate complex 0.001 mM were tested to determine the effect on cell cycle on B16 (mice melanoma cells) during the G1, S and G2 cell phases. The procedure for testing using the flow cytometer was carried out as set forth in Example 1 above.

[2] = system: transplanted human hepatoma (Hep G2 cells); assay: Volume of transplanted human hepatoma (Hep G2) in hairless mice; type: in vivo
Experimental: The procedures for performing this test were as follows. Hep G2 cells were prepared at 25*10^6 cells/ml and 0.2 ml of the cell suspension (5*10^6 cells) was injected in an exposed mouse mammary fat pad. When tumors achieved the required size (0.5 cm^3), animals would be treated with 50 μl of B10, dehydrated alcohol or 10% glucose solution once daily for 6 days. During 12 days after the last injection, tumor volume will be assessed by measuring tumor dimensions (long (L) and short (S)) and estimated it as V=0.52*L*S^2. 12 days after the last injection, mice would be sacrificed and tumors would be dissected, weighed and stored in a formaline solution for further evaluation.).

| SMILES | S ([1]; control 12.8) | G2 ([1]; control 23.1) | G1 ([1]; control 64) | rate of elimination of hepatoma volume [2] [%] | Volume After Treatment ([2]; Hep G2 tumor, 50 μl once daily for 6 days, 10% G.S. 444 ± 199) | Volume Before Treatment ([2]; Hep G2 tumor, before treatment) | Volume Changes ([2]; Hep G2 tumor, ↓ = decrease, 10% G.S. ↑158%) |
| --- | --- | --- | --- | --- | --- | --- | --- |
| CN(C)C(=N)N=C(N)N [Metformin] | 4.6 | 23.6 | 71.8 |  |  |  |  |
| CCO [Dehydration ethanol] |  |  |  | 52.7 | 89 ± 120** | 188 ± 119 | ↓52.7% |
